Reference: the NIST ThermoML archive (doi:10.1021/je9005618)
Numbers after ± are expanded uncertainties.

Assay: xn = mol fraction of the nth substance listed
Details: 101 kPa, Liquid

## CCn1cc[n+](C)c1.O=S(=O)([O-])C(F)(F)F [1-ethyl-3-methylimidazolium trifluoromethanesulfonate] + CC(C)=O
278.15 K, x1 = 0.05
  mass density: 887.53 ± 0.82 kg/m3
  speed of sound: 1280.3 ± 1.7 m/s
278.15 K, x1 = 0.0999
  mass density: 953.96 ± 0.66 kg/m3
  speed of sound: 1299.7 ± 1.7 m/s
278.15 K, x1 = 0.1501
  mass density: 1010.97 ± 0.59 kg/m3
  speed of sound: 1313.5 ± 1.8 m/s
278.15 K, x1 = 0.2004
  mass density: 1060.17 ± 0.78 kg/m3
  speed of sound: 1327.8 ± 1.8 m/s
278.15 K, x1 = 0.2988
  mass density: 1138.02 ± 1.1 kg/m3
  speed of sound: 1356.4 ± 1.9 m/s
278.15 K, x1 = 0.4007
  mass density: 1201.1 ± 1.4 kg/m3
  speed of sound: 1382.4 ± 2 m/s
278.15 K, x1 = 0.5006
  mass density: 1250.85 ± 1.7 kg/m3
  speed of sound: 1404.5 ± 2 m/s
278.15 K, x1 = 0.6007
  mass density: 1291.81 ± 2 kg/m3
  speed of sound: 1423.5 ± 2.1 m/s
278.15 K, x1 = 0.7014
  mass density: 1326.9 ± 2.3 kg/m3
  speed of sound: 1441 ± 2.2 m/s
278.15 K, x1 = 0.7998
  mass density: 1354.5 ± 2.5 kg/m3
  speed of sound: 1455.6 ± 2.3 m/s
278.15 K, x1 = 0.8435
  mass density: 1365.96 ± 2.7 kg/m3
  speed of sound: 1462.5 ± 2.3 m/s
278.15 K, x1 = 0.9006
  mass density: 1379.4 ± 2.8 kg/m3
  speed of sound: 1469.4 ± 2.4 m/s
278.15 K, x1 = 0.9501
  mass density: 1390.54 ± 3 kg/m3
  speed of sound: 1475.9 ± 2.4 m/s
288.15 K, x1 = 0.05
  mass density: 876.86 ± 0.84 kg/m3
  speed of sound: 1233.3 ± 1.6 m/s
288.15 K, x1 = 0.0999
  mass density: 943.44 ± 0.68 kg/m3
  speed of sound: 1253.5 ± 1.7 m/s
288.15 K, x1 = 0.1501
  mass density: 1000.75 ± 0.56 kg/m3
  speed of sound: 1273.1 ± 1.7 m/s
288.15 K, x1 = 0.2004
  mass density: 1050.21 ± 0.74 kg/m3
  speed of sound: 1291.8 ± 1.8 m/s
288.15 K, x1 = 0.2988
  mass density: 1128.31 ± 1.1 kg/m3
  speed of sound: 1324.7 ± 1.9 m/s
288.15 K, x1 = 0.4007
  mass density: 1191.78 ± 1.4 kg/m3
  speed of sound: 1353 ± 1.9 m/s
288.15 K, x1 = 0.5006
  mass density: 1241.69 ± 1.7 kg/m3
  speed of sound: 1376.7 ± 2 m/s
288.15 K, x1 = 0.6007
  mass density: 1282.81 ± 2 kg/m3
  speed of sound: 1397.2 ± 2.1 m/s
288.15 K, x1 = 0.7014
  mass density: 1318.05 ± 2.2 kg/m3
  speed of sound: 1415.8 ± 2.2 m/s
288.15 K, x1 = 0.7998
  mass density: 1345.77 ± 2.5 kg/m3
  speed of sound: 1430.9 ± 2.3 m/s
288.15 K, x1 = 0.8435
  mass density: 1357.29 ± 2.6 kg/m3
  speed of sound: 1437.8 ± 2.3 m/s
288.15 K, x1 = 0.9006
  mass density: 1370.81 ± 2.8 kg/m3
  speed of sound: 1445.7 ± 2.4 m/s
288.15 K, x1 = 0.9501
  mass density: 1382 ± 2.9 kg/m3
  speed of sound: 1452.1 ± 2.4 m/s
298.15 K, x1 = 0.05
  mass density: 866.08 ± 0.87 kg/m3
  speed of sound: 1191.1 ± 1.6 m/s
298.15 K, x1 = 0.0999
  mass density: 932.87 ± 0.71 kg/m3
  speed of sound: 1214.3 ± 1.7 m/s
298.15 K, x1 = 0.1501
  mass density: 990.52 ± 0.58 kg/m3
  speed of sound: 1236.6 ± 1.7 m/s
298.15 K, x1 = 0.2004
  mass density: 1040.29 ± 0.7 kg/m3
  speed of sound: 1257.5 ± 1.8 m/s
298.15 K, x1 = 0.2988
  mass density: 1118.66 ± 1.1 kg/m3
  speed of sound: 1293.5 ± 1.9 m/s
298.15 K, x1 = 0.4007
  mass density: 1182.49 ± 1.4 kg/m3
  speed of sound: 1324.3 ± 1.9 m/s
298.15 K, x1 = 0.5006
  mass density: 1232.59 ± 1.7 kg/m3
  speed of sound: 1349.7 ± 2 m/s
298.15 K, x1 = 0.6007
  mass density: 1273.89 ± 1.9 kg/m3
  speed of sound: 1371.6 ± 2.1 m/s
298.15 K, x1 = 0.7014
  mass density: 1309.28 ± 2.2 kg/m3
  speed of sound: 1391.3 ± 2.2 m/s
298.15 K, x1 = 0.7998
  mass density: 1337.12 ± 2.5 kg/m3
  speed of sound: 1407 ± 2.3 m/s
298.15 K, x1 = 0.8435
  mass density: 1348.69 ± 2.6 kg/m3
  speed of sound: 1414.3 ± 2.3 m/s
298.15 K, x1 = 0.9006
  mass density: 1362.28 ± 2.7 kg/m3
  speed of sound: 1422.5 ± 2.4 m/s
298.15 K, x1 = 0.9501
  mass density: 1373.52 ± 2.9 kg/m3
  speed of sound: 1429.1 ± 2.4 m/s
308.15 K, x1 = 0.05
  mass density: 855.21 ± 0.9 kg/m3
  speed of sound: 1149.9 ± 1.6 m/s
308.15 K, x1 = 0.0999
  mass density: 922.28 ± 0.74 kg/m3
  speed of sound: 1176 ± 1.6 m/s
308.15 K, x1 = 0.1501
  mass density: 980.27 ± 0.6 kg/m3
  speed of sound: 1200.8 ± 1.7 m/s
308.15 K, x1 = 0.2004
  mass density: 1030.37 ± 0.67 kg/m3
  speed of sound: 1223.7 ± 1.7 m/s
308.15 K, x1 = 0.2988
  mass density: 1109.04 ± 1 kg/m3
  speed of sound: 1262.9 ± 1.8 m/s
308.15 K, x1 = 0.4007
  mass density: 1173.23 ± 1.3 kg/m3
  speed of sound: 1296.1 ± 1.9 m/s
308.15 K, x1 = 0.5006
  mass density: 1223.54 ± 1.6 kg/m3
  speed of sound: 1323 ± 2 m/s
308.15 K, x1 = 0.6007
  mass density: 1265.02 ± 1.9 kg/m3
  speed of sound: 1346.5 ± 2.1 m/s
308.15 K, x1 = 0.7014
  mass density: 1300.58 ± 2.2 kg/m3
  speed of sound: 1367.3 ± 2.2 m/s
308.15 K, x1 = 0.7998
  mass density: 1328.53 ± 2.4 kg/m3
  speed of sound: 1383.7 ± 2.3 m/s
308.15 K, x1 = 0.8435
  mass density: 1340.15 ± 2.5 kg/m3
  speed of sound: 1391.2 ± 2.3 m/s
308.15 K, x1 = 0.9006
  mass density: 1353.81 ± 2.7 kg/m3
  speed of sound: 1399.9 ± 2.4 m/s
308.15 K, x1 = 0.9501
  mass density: 1365.09 ± 2.8 kg/m3
  speed of sound: 1406.7 ± 2.4 m/s
318.15 K, x1 = 0.05
  mass density: 844.23 ± 0.93 kg/m3
  speed of sound: 1109.3 ± 1.6 m/s
318.15 K, x1 = 0.0999
  mass density: 911.64 ± 0.77 kg/m3
  speed of sound: 1138.2 ± 1.6 m/s
318.15 K, x1 = 0.1501
  mass density: 969.97 ± 0.63 kg/m3
  speed of sound: 1165.4 ± 1.7 m/s
318.15 K, x1 = 0.2004
  mass density: 1020.44 ± 0.63 kg/m3
  speed of sound: 1190.4 ± 1.7 m/s
318.15 K, x1 = 0.2988
  mass density: 1099.45 ± 0.98 kg/m3
  speed of sound: 1232.8 ± 1.8 m/s
318.15 K, x1 = 0.4007
  mass density: 1164.02 ± 1.3 kg/m3
  speed of sound: 1268.4 ± 1.9 m/s
318.15 K, x1 = 0.5006
  mass density: 1214.55 ± 1.6 kg/m3
  speed of sound: 1297.1 ± 2 m/s
318.15 K, x1 = 0.6007
  mass density: 1256.22 ± 1.9 kg/m3
  speed of sound: 1322 ± 2.1 m/s
318.15 K, x1 = 0.7014
  mass density: 1291.94 ± 2.1 kg/m3
  speed of sound: 1343.8 ± 2.2 m/s
318.15 K, x1 = 0.7998
  mass density: 1320.01 ± 2.4 kg/m3
  speed of sound: 1361 ± 2.3 m/s
318.15 K, x1 = 0.8435
  mass density: 1331.68 ± 2.5 kg/m3
  speed of sound: 1368.7 ± 2.3 m/s
318.15 K, x1 = 0.9006
  mass density: 1345.41 ± 2.6 kg/m3
  speed of sound: 1377.7 ± 2.4 m/s
318.15 K, x1 = 0.9489
  mass density: 1356.74 ± 2.8 kg/m3
  speed of sound: 1384.7 ± 2.4 m/s
